Experimental data reported in patent US20020035131A1, “Regimen and kit for amelioration of premature ejaculation” (Pentech Pharmaceuticals, Inc., priority 1999, published 2002).
Several values for one entry are separate records, joined by “and”; a condition that tells them apart may be missing. Equal entries are not always repeated.

Assays:
Assay type in all cases: in vivo, human
[1] = tested on: normally potent male patients suffering from premature ejaculation; test: Example 1 prospective study: ejaculatory latency time (ELT) and frequency of intercourse, dose conversion and continual maintenance regimens; conditions: for mean ELT after treatment: from a mean ELT of less than one minute
Procedure: The term “premature ejaculation” as used herein refers to ejaculation that occurs within 60 seconds of vaginal intromission. […] The patients were selected on the basis of a having baseline pretreatment ejaculation latency time (“ELT”) of less than about two minutes. An ELT of less than one minute was regarded as severe premature ejaculation dysfunction. In contrast, the average ELT of a normally potent person is about three to about four minutes. The baseline ELT of the patient was determined as the mean of measurements at a minimum of two acts of sexual intercourse prior to commencing treatment using a stopwatch operated by the patient. […] The term “acute” with respect to the dosing means that the patient ingested an oral dose of paroxetine daily after breakfast or lunch for a period of at least one week. The patients were supplied with an ejaculation diary and were asked to record their frequency of coitus, quality of erection and orgasm, and to record their ELT using a stopwatch. The patients were required to attempt coitus on at least two occasions each week at home. In some trials, the patient's partner was also instructed on the use of the stopwatch and asked to record their recollection of the timing of the patient's ejaculation. […] All patients in the study group were heterosexual, had no other sexual disorders and were either married or in a stable relationship. […] The mean age of the 94 patients was 39 years (range 18-61 years). […] Vital signs, such as heart rate, blood pressure and the like were also monitored by the Registered Nurse. […] Of the group, 55 men (59%) had lifelong premature ejaculation, with the remaining 39 men (41%) describing acquired premature ejaculation with previous acceptable ejaculatory control. Of the 55 men with lifelong premature ejaculation, 10 men (18%) had severe lifelong premature ejaculation and had never achieved intravaginal ejaculation. The patients in the study were enrolled into two groups, Group A and Group B. […] Each patient was supplied with an ejaculation diary and instructed to record their frequency of coitus, quality of erection and orgasm, and to measure and record their ejaculatory latency time using a stop-watch. The patients were required to attempt coitus on at least two occasions each week. Statistical analysis: A Student's t-test was used to compare the mean ELT values before and after treatment with paroxetine for each of Groups A and B.

[2] = tested on: normally potent male patients suffering from premature ejaculation; test: Example 2: incidence of adverse effects
[3] = tested on: healthy men with a diagnosis of premature ejaculation (PE); test: Example 3: double-blind, randomized, placebo-controlled three-way crossover safety and efficacy study, 20 and 30 mg capsules; conditions: for Mean Time in minutes, Reported By Partner / Time in minutes (Range), Reported By Partner / Mean Time in minutes, Reported By Patient / Time in minutes (Range), Reported By Patient / Mean % Change from Baseline, Reported By Partner / Mean % Change from Baseline, Reported By Patient: 6-week treatment period, preliminary data; for Mean Time in minutes, Reported By Partner / Time in minutes (Range), Reported By Partner / Mean Time in minutes, Reported By Patient / Time in minutes (Range), Reported By Patient: male baseline latency ≦ 2 minutes; for Reason for Early Termination: AE (Adverse Experience), patients: crossover of placebo, 20 and 30 mg capsules, not attributed to one treatment
Procedure: A double-blind, randomized, placebo-controlled, three-way crossover safety and efficacy study was conducted at four clinical sites, A-D. […] The study consisted of a screening period, a baseline period, and three treatment periods, separated by two washout periods. Patients who completed the study participated for about twenty-five weeks. […] Patients who met the selection criteria provided a medical history and submitted to psychosexual and physical examinations at screening. The efficacy of the paroxetine capsules was assessed at each visit by questionnaire. Safety was assessed by physical examinations and adverse experience (AE) reports, if any, were collected throughout the course of the study. A post-treatment physical assessment was performed at the final visit. Qualified patients who were admitted to the study were assigned an identification number in sequential order by enrollment. […] There were about twenty-three patients per sequence. […] Life long history of PE and/or history of PE within the last six months having ≦one minute ejaculation and a perception of lack of control. […] Identically matching placebo capsules were also supplied. Blinding, packaging and labeling was such that each strength of paroxetine capsule and placebo capsule was indistinguishable from one another on the basis of size, appearance, shape, weight, taste, odor finish, and dissolution characteristics. […] A three-week washout (no treatment) period took place between the end of Treatment Period 1 and the start of Treatment Period 2, and between the end of Treatment Period 2 and the start of Treatment Period 3. The following methodology for the study was employed.

[4] = Group A-Phase 2: 20 mg continual maintenance dose 3-4 hours prior to intercourse, further four weeks after Phase 1, 53 men
[5] = Group A-Phase 2: 20 mg continual maintenance, the 36/53 patients
[6] = Group B: 20 mg continual maintenance dose only, 3-4 hours prior to intercourse, four weeks, 33 men
[7] = Group B: solely 20 mg continual maintenance, the 14/33 responders
[8] = Group B: solely 20 mg continual maintenance, the 19/33 non-responders
[9] = Study Group 2, Daily Paroxetine (10 mg)
[10] = Study Group 2, Daily Paroxetine (10 mg), 42 patients
[11] = Study Group 2, Daily Paroxetine (10 mg), 42 patients, listed as Paroxetine

For Fc1ccc([C@@H]2CCNC[C@H]2COc2ccc3c(c2)OCO3)cc1 (relative stereo) [paroxetine, trans-(−)-3-(1,3-benzodioxol-5-yloxy)methyl-4-(4-fluorophenyl) piperidine], the “patients who achieved and maintained improved ejaculatory control” value ([1]; Group A overall (36/61): four weeks daily 20 mg followed by conversion to continual maintenance) was 59%, the “mean Frequency Intercourse Times/Week” value ([1]; Group A-Phase 1: 20 mg acute dose daily for four weeks, 61 men) was 2.4 Times/Week and the “mean ELT” value ([1]; Group A-Phase 1: 20 mg acute dose daily, at four weeks, 61 men) was 4.5 min. For the same compound, the “patients who regarded their ejaculatory control as significantly improved” value ([1]; Group A-Phase 1: 20 mg daily for four weeks, 53 of 61 patients) was 87%, the “ELT of patients with improved ejaculatory control” value ([1]; Group A-Phase 1: 20 mg daily, after four weeks, the 53/61 responders) was 5.1 min and the “mean ELT” value ([1]; Group A-Phase 1: 20 mg daily, after one week of treatment) was 1.1 min. For the same compound, the “mean ELT” value ([1]; Group A-Phase 1: 20 mg daily, after two weeks) was 1.6 min, the “mean ELT of patients without improved control” value ([1]; Group A-Phase 1: 20 mg daily, at four weeks, the 8/61 non-responders) was 0.6 min and the “mean ELT” value ([1]; Group A-Phase 1: 20 mg daily, at three weeks) was 3.5 min. The “frequency of sexual intercourse acts of patients without improved control” value ([1]; Group A-Phase 1: 20 mg daily, the 8/61 non-responders) was 1.7 times/week, the “frequency of sexual intercourse acts of patients with improved ejaculatory control” value ([1]; Group A-Phase 1: 20 mg daily, the 53/61 responders) was 2.5 times/week and the “mean ELT” value [1, 4] was 3.9 min. For the same compound, the “mean Frequency Intercourse Times/Week” value [1, 4] was 2.6 Times/Week, the “mean ELT of patients who failed to maintain improved control” value ([1]; Group A-Phase 2: 20 mg continual maintenance, at four weeks, the 16/53 men) was 0.6 min and the “frequency of acts of sexual intercourse/week of patients who failed to maintain improved control” value ([1]; Group A-Phase 2: 20 mg continual maintenance, the 16/53 men) was 2.8 acts of sexual intercourse/week. For the same compound, the “frequency of acts of sexual intercourse/week of patients who maintained improved control” value [1, 5] was 2.4 acts of sexual intercourse/week, the “mean ELT of patients who maintained improved ejaculatory control” value [1, 5] was 5.5 min and the “patients who failed to maintain improved ejaculatory control (recurrence of premature ejaculation)” value ([1]; Group A-Phase 2: after conversion from daily to 20 mg continual maintenance, 16/53) was 31% and 32%. The “patients who maintained improved ejaculatory control” value ([1]; Group A-Phase 2: four weeks 20 mg continual maintenance after four weeks daily, 36/53) was 69% and 68%, the “mean ELT” value [1, 6] was 1.5 min and the “mean Frequency Intercourse Times/Week” value [1, 6] was 2.2 Times/Week. For the same compound, the “patients who regarded their ejaculatory control as significantly improved (fraction of patients)” value ([1]; Group B: solely 20 mg continual maintenance) was 14/33, the “patients who achieved ejaculatory control” value ([1]; Group B: solely 20 mg continual maintenance, 14 of 33) was 42% and the “frequency of acts of sexual intercourse/week of patients with improved control” value [1, 7] was 2.4 acts of sexual intercourse/week. For the same compound, the “mean ELT of patients with improved ejaculatory control” value [1, 7] was 2.7 min, the “frequency of acts of intercourse/week of patients with no change in ejaculatory control” value [1, 8] was “two” and the “mean ELT of patients with no change in ejaculatory control” value [1, 8] was 0.4 min. For the same compound, the “mean ELT after treatment” value ([1]; four weeks initial loading and four weeks continual maintenance) was “greater than 2.5 minutes”, the “men achieving intra-vaginal ejaculation for the first time” value ([1]; men with severe lifelong premature ejaculation who had never achieved intra-vaginal ejaculation (including four in Group B)) was 10/10 and the “time to improved ejaculatory control after initiating treatment” value ([1]; paroxetine oral therapy regimen) was 1-2 weeks. For the same compound, the “mean ELT after treatment” value ([1]; solely continual maintenance dosage over about four weeks) was “at least 1.5 minutes”, the “patients reporting any adverse effects” value ([2]; Study Group 1, continual maintenance use of paroxetine (20 mg)) was “None” and the “Adverse effects: Total Patients (fraction)” value [2, 9] was 7/42. The “Adverse effects: Total Patients (percent)” value [2, 9] was 17%, the “Adverse effect: Anejaculation (patients)” value [2, 10] was “Three” and the “Adverse effect: Anorexia (patients)” value [2, 10] was 1. The “Adverse effect: Gastrointestinal upset (patients)” value [2, 10] was 3, the “Adverse effect: Reduced Libido (patients)” value [2, 10] was “Two” and the “Adverse effect: Anejaculation (patients)” value [2, 11] was 3. The “Adverse effect: Reduced Libido (patients)” value [2, 11] was 2, the “return of ejaculation after withdrawal of the drug” value ([2]; Study Group 2, patients with anejaculation on daily paroxetine) was 2 to 10 days and the “Mean Time in minutes, Reported By Partner” value ([3]; 20 mg capsule daily, n = 26) was 6.5 min. The “Time in minutes (Range), Reported By Partner” value ([3]; 20 mg capsule daily, n = 26) was “(0.4-20) minutes”, the “Mean Time in minutes, Reported By Patient” value ([3]; 20 mg capsule daily, n = 28) was 6.2 min and the “Time in minutes (Range), Reported By Patient” value ([3]; 20 mg capsule daily, n = 28) was “(0.5-20) minutes”. The “Mean % Change from Baseline, Reported By Partner” value ([3]; 20 mg capsule daily) was 225%, the “Mean % Change from Baseline, Reported By Patient” value ([3]; 20 mg capsule daily) was 464% and the “Mean Time in minutes, Reported By Partner” value ([3]; 30 mg capsule daily, n = 25) was 6.8 min. The “Time in minutes (Range), Reported By Partner” value ([3]; 30 mg capsule daily, n = 25) was “(0.3-30) minutes”, the “Mean Time in minutes, Reported By Patient” value ([3]; 30 mg capsule daily, n = 27) was 7 min and the “Time in minutes (Range), Reported By Patient” value ([3]; 30 mg capsule daily, n = 27) was “(0.25-45) minutes”. The “Mean % Change from Baseline, Reported By Partner” value ([3]; 30 mg capsule daily) was 240%, the “Mean % Change from Baseline, Reported By Patient” value ([3]; 30 mg capsule daily) was 536% and the “Reason for Early Termination: AE (Adverse Experience), patients” value (shortened to “Reason for Early Termination: AE”) ([3]; Clinical Site A, 10 enrolled) was 0. The “Reason for Early Termination: AE” value ([3]; Clinical Site B, 9 enrolled) was 0, the “Reason for Early Termination: AE” value ([3]; Clinical Site C, 15 enrolled) was 2 and the “Reason for Early Termination: AE” value ([3]; Clinical Site D, 19 enrolled) was 3. The “Reason for Early Termination: AE” value ([3]; TOTALS of sites A-D, 53 enrolled) was 5.
